In PMC12190468, “Designing New Chimeric Proline-Rich Antimicrobial Peptides to Enhance Efficacy Toward the ESKAPE+E: Beyond Sequence Extension” (Biomolecules, 2025):
Like-named read-outs stand apart in the source and are kept apart here. Ends that are not written are not given here.

Columns and labels:
E. coli BW 25113 [1] = assay type: cell-based, Escherichia coli; conditions: ≥99.9% reduction of viability, after 18 h at 37 °C, mode of at least three independent experiments
Method: (§1) Reference bacterial strains, including Escherichia coli BW25113, Escherichia coli ATCC 25922, Klebsiella pneumoniae ATCC 700603, Acinetobacter baumannii ATCC 19606, Enterobacter cloacae ATCC 13047, Pseudomonas aeruginosa ATCC 27853, Staphylococcus aureus ATCC 25923, and Enterococcus faecium ATCC 19434, were obtained from the American Type Culture Collection (ATCC) in Manassas, VA, USA. Strains were stored at −80 °C in glycerol stocks until use. For all experiments, cultures were grown in sterile MHB (Difco Inc., Becton Dickinson, Sparks, MD, USA). Overnight cultures were incubated at 37 °C for approximately 18 h under shacking (140 rpm, then diluted 1:30 in fresh MHB and again shaken at 140 rpm for ~2 h to reach the mid-log phase (OD ~0.3 at 600 nm). The bacterial cultures were then diluted to the desired concentration for experiments. E. coli BW25113 ΔsbmA (Keio collection) was grown in MHB with the addition of 50 μg/mL kanamycin (Sigma, Milan, Italy).
(§2) The Minimal Bactericidal Concentration (MBC) was determined by plating 25 μL from clear MIC wells onto MH-agar Petri dishes (Difco Inc., Becton Dickinson, Sparks, MD, USA), followed by overnight incubation at 37 °C. The MBC was the lowest compound concentration, reducing bacterial viability by ≥99.9%. Results were based on at least three independent experiments (n ≥ 3).

E. coli ATCC 25922 [2] = assay type: cell-based, Escherichia coli
Method: as §1, §2

P. aeruginosa ATCC 27853 [3] = assay type: cell-based, Pseudomonas aeruginosa
Method: as §1
(§3) Antimicrobial activity was assessed using the Minimum Inhibitory Concentration (MIC) assay, following CLSI guidelines. Briefly, peptides were serially diluted in MHB across a 96-well round-bottom plate (Sarstedt, Milan, Italy), starting with 50 μL in the first well. A mid-log bacterial culture was diluted to 5 × 10^5 CFU/mL, and 50 μL of this suspension was added to each well (except the MHB sterility control wells). […] MIC values were confirmed by at least three independent experiments (n ≥ 3).

E. cloacae ATCC 13047 [4] = assay type: cell-based, Enterobacter cloacae
Method: as §1, §2

E. faecium ATCC 19434 [5] = assay type: cell-based, Enterococcus faecium
Method: as §1, §3

[6] = system: K. pneumoniae ATCC 700603; assay type: cell-based, Klebsiella pneumoniae
Method: as §1, §2

E. cloacae ATCC 13047 [7] = assay type: cell-based, Enterobacter cloacae; remark: listed apart in the source
Method: as §1, §3

S. aureus ATCC 25923 [8] = assay type: cell-based, Staphylococcus aureus
Method: as §1, §2

E. coli BW 25113 [9] = assay type: cell-based, Escherichia coli; conditions: full MHB, 18 h at 37 °C, mode of at least three independent experiments
Method: as §1, §3

E. coli ATCC 25922 [10] = assay type: cell-based, Escherichia coli; remark: listed apart in the source
Method: as §1, §3

E. coli BW 25113 ΔsbmA [11] = assay type: cell-based, Escherichia coli; conditions: full MHB, 18 h at 37 °C, mode of at least three independent experiments
Method: as §1, §3

E. faecium ATCC 19434 [12] = assay type: cell-based, Enterococcus faecium; remark: listed apart in the source
Method: as §1, §2

A. baumannii ATCC 19606 [13] = assay type: cell-based, Acinetobacter baumannii
Method: as §1, §2

P. aeruginosa ATCC 27853 [14] = assay type: cell-based, Pseudomonas aeruginosa; remark: listed apart in the source
Method: as §1, §2

S. aureus ATCC 25923 [15] = assay type: cell-based, Staphylococcus aureus; conditions: ATCC 25923, 18 h
Method: as §1, §3

A. baumannii ATCC 19606 [16] = assay type: cell-based, Acinetobacter baumannii; conditions: ATCC 19606, 18 h
Method: as §1, §3

[17] = system: K. pneumoniae ATCC 700603; assay type: cell-based, Klebsiella pneumoniae; conditions: ATCC 700603, 18 h
Method: as §1, §3

E. coli BW 25113 ΔsbmA [18] = assay type: cell-based, Escherichia coli; conditions: ≥99.9% reduction of viability, after 18 h at 37 °C, mode of at least three independent experiments
Method: as §1, §2

A549 cells = assay type: cell-based, human
Method: The human lung carcinoma epithelial cell line (A549) was obtained from the American Type Culture Collection (ATCC) (Manassas, VA, USA). A549 cells were cultured in adhesion flasks (EuroClone, Milan, Italy) with complete Dulbecco’s MEM (DMEM, EuroClone, Milan, Italy) containing high glucose, supplemented with 100 U/mL penicillin, […] streptomycin (Sigma, Milan, Italy), 2 mM L-glutamine, and 10% FBS (Life Technologies, Carlsbad, CA, USA). Cells were incubated at 37 °C with 5% CO2.
Cytotoxicity in A549 cells was assessed using the MTT assay. After reaching confluence, cells were counted using a Bürker–Türk chamber and diluted to 2 × 10^5 cells/mL in DMEM. A total of 100 μL of this suspension was seeded into 96-well plates (Sarstedt, Milan, Italy) and incubated overnight at 37 °C with 5% CO2. The next day, the spent medium was replaced with 100 μL of fresh DMEM medium containing peptide or water at the desired concentration. After 20 h of incubation, 25 μL of 1 mg/mL MTT (Sigma, Milan, Italy) in PBS was added, and the plates were incubated for 4 h in the dark. […] After overnight incubation, absorbance was measured at 570 nm using a Nanoquant Infinite-M200Pro plate reader (Tecan Trading AG, Switzerland). The cytotoxicity was calculated by comparing the OD of treated samples with that of untreated controls. […]

Row | Sequence | MBC (E. coli BW 25113 [1]) [µM] | MIC (E. coli BW 25113 [9]) [µM] | MIC (E. coli BW 25113 ΔsbmA [11]) [µM] | MBC (E. coli ATCC 25922 [2]; ATCC 25922, 18 h) [µM] | MBC (geometric mean) (E. coli ATCC 25922 [2]; ATCC 25922, 18 h) | MIC (P. aeruginosa ATCC 27853 [3]; ATCC 27853, 18 h) [µM] | MIC (geometric mean) (P. aeruginosa ATCC 27853 [3]; ATCC 27853, 18 h) | MBC (E. cloacae ATCC 13047 [4]; ATCC 13047, 18 h) [µM] | MBC (S. aureus ATCC 25923 [8]; ATCC 25923, 18 h) [µM] | MIC (E. coli ATCC 25922 [10]; ATCC 25922, 18 h) [µM] | MIC (geometric mean) (E. coli ATCC 25922 [10]; ATCC 25922, 18 h) | MIC (S. aureus ATCC 25923 [15]) [µM] | MIC (geometric mean) (S. aureus ATCC 25923 [15]) | MBC (E. faecium ATCC 19434 [12]; ATCC 19434, 18 h) [µM] | MBC (P. aeruginosa ATCC 27853 [14]; ATCC 27853, 18 h) [µM] | MIC (A. baumannii ATCC 19606 [16]) [µM] | MBC ([6]; ATCC 700603, 18 h) [µM] | MBC (geometric mean) ([6]; ATCC 700603, 18 h) | MBC (geometric mean) (S. aureus ATCC 25923 [8]; ATCC 25923, 18 h) | MBC (E. coli BW 25113 ΔsbmA [18]) [µM] | also measured
1 | WRIRRRWPRLPRPRWR [Peptide B7-005] | 2 | 1 | 2 | – | – | – | – | – | – | – | – | – | – | – | – | – | – | – | – | – | MBC (E. coli ATCC 25922 [2]; E. coli ATCC 25922, ≥99.9% reduction of viability, after 18 h at 37 °C, mode of at least three independent experiments): 2 µM; MIC (P. aeruginosa ATCC 27853 [3]; P. aeruginosa ATCC 27853, full MHB, 18 h at 37 °C, mode of at least three independent experiments): 16 µM; MBC (E. cloacae ATCC 13047 [4]; E. cloacae ATCC 13047, ≥99.9% reduction of viability, after 18 h at 37 °C, mode of at least three independent experiments): 16 µM; MIC (E. faecium ATCC 19434 [5]; E. faecium ATCC 19434, full MHB, 18 h at 37 °C, mode of at least three independent experiments): 32 µM; MBC ([6]; K. pneumoniae ATCC 700603, ≥99.9% reduction of viability, after 18 h at 37 °C, mode of at least three independent experiments): 4 µM; MIC (E. cloacae ATCC 13047 [7]; E. cloacae ATCC 13047, full MHB, 18 h at 37 °C, mode of at least three independent experiments): 8 µM; MBC (S. aureus ATCC 25923 [8]; S. aureus ATCC 25923, ≥99.9% reduction of viability, after 18 h at 37 °C, mode of at least three independent experiments): 16 µM; MIC (E. coli ATCC 25922 [10]; E. coli ATCC 25922, full MHB, 18 h at 37 °C, mode of at least three independent experiments): 1 µM; MBC (E. faecium ATCC 19434 [12]; E. faecium ATCC 19434, ≥99.9% reduction of viability, after 18 h at 37 °C, mode of at least three independent experiments): >64 µM; MBC (A. baumannii ATCC 19606 [13]; A. baumannii ATCC 19606, ≥99.9% reduction of viability, after 18 h at 37 °C, mode of at least three independent experiments): 4 µM; MBC (P. aeruginosa ATCC 27853 [14]; P. aeruginosa ATCC 27853, ≥99.9% reduction of viability, after 18 h at 37 °C, mode of at least three independent experiments): 16 µM
2 | WRIRRRWPRLPRPRWRPLPFPR [Peptide B7-B6] | 1 | 1 | 2 | 2 | 1,6 µM | 8 | 10,1 µM | 4 | 16 | 2 | 1,6 µM | 8 | 10,1 µM | >64 | 16 | 1 | – | – | – | – | MIC (E. faecium ATCC 19434 [5]; ATCC 19434, 18 h): 8 µM; MIC (geometric mean) (E. faecium ATCC 19434 [5]; ATCC 19434, 18 h): 10,1 µM
3 | WRIRRRWPRLPRPRWRPLPFPRPGPRP [Peptide B7-B11] | 1 | 0.5 | 1 | – | – | 16 | 12,7 µM | 4 | 32 | 1 | 0,8 µM | 16 | 20,2 µM | >64 | 16 | 1 | 8 | 6,3 µM | 40,3 µM | – | MIC (E. cloacae ATCC 13047 [7]; ATCC 13047, 18 h): 2 µM; MIC [17]: 2 µM; MBC (A. baumannii ATCC 19606 [13]; ATCC 19606, 18 h): 2 µM; MBC (geometric mean) (P. aeruginosa ATCC 27853 [14]; ATCC 27853, 18 h): 20,2 µM; MIC (geometric mean) (A. baumannii ATCC 19606 [16]): 0,8 µM
4 | WRIRRRWPRLPRPRWRPRFPPP [Peptide B7-T6] | 2 | 1 | 1 | 0.5 | 0,6 µM | 8 | 12,7 µM | 4 | 32 | 0.5 | 0,6 µM | 16 | – | >64 | 32 | 1 | – | – | 25,4 µM | 2 | MIC (E. faecium ATCC 19434 [5]; ATCC 19434, 18 h): 16 µM; MIC (E. cloacae ATCC 13047 [7]; ATCC 13047, 18 h): 2 µM; MIC (geometric mean) (E. cloacae ATCC 13047 [7]; ATCC 13047, 18 h): 2,5 µM; MBC (geometric mean) (P. aeruginosa ATCC 27853 [14]; ATCC 27853, 18 h): 25,4 µM
5 | WRIRRRWPRLPRPRWRPRFPPPFPIPR [Peptide B7-T11] | 1 | 1 | 1 | 2 | 1,3 µM | 16 | 12,7 µM | – | 16 | 2 | 1,3 µM | 16 | 12,7 µM | 32 | 16 | 1 | 4 | 3,2 µM | 20,2 µM | 2 | Cytotoxicity toward A549 cells (MTT) at 64 µM (A549 cells): cytotoxic; MIC (E. faecium ATCC 19434 [5]; ATCC 19434, 18 h): 4 µM; MIC (geometric mean) (E. faecium ATCC 19434 [5]; ATCC 19434, 18 h): 5,0 µM; MBC (geometric mean) (E. faecium ATCC 19434 [12]; ATCC 19434, 18 h): 40,3 µM; MBC (A. baumannii ATCC 19606 [13]; ATCC 19606, 18 h): 2 µM; MBC (geometric mean) (A. baumannii ATCC 19606 [13]; ATCC 19606, 18 h): 1,6 µM; MBC (geometric mean) (P. aeruginosa ATCC 27853 [14]; ATCC 27853, 18 h): 20,2 µM; MIC (geometric mean) (A. baumannii ATCC 19606 [16]): 1,3 µM
6 | WRIRRRWPRLPRPRWRPWFPPR [Peptide B7-L6] | 1 | – | 2 | 4 | 3,2 µM | 4 | 5,0 µM | 2 | 8 | 4 | 3,2 µM | – | – | 32 | – | 2 | 4 | 3,2 µM | 10,1 µM | 2 | MBC (geometric mean) (E. cloacae ATCC 13047 [4]; ATCC 13047, 18 h): 2,5 µM; MBC (geometric mean) (E. faecium ATCC 19434 [12]; ATCC 19434, 18 h): 40,3 µM; MIC [17]: 2 µM; MIC (geometric mean) [17]: 2,5 µM; MBC (A. baumannii ATCC 19606 [13]; ATCC 19606, 18 h): 2 µM; MBC (geometric mean) (A. baumannii ATCC 19606 [13]; ATCC 19606, 18 h): 1,6 µM; MIC (geometric mean) (A. baumannii ATCC 19606 [16]): 1,6 µM
7 | WRIRRRWPRLPRPRWRPWFPPRFPIPR [Peptide B7-L11] | 2 | 1 | 2 | 2 | 2,5 µM | 8 | 6,3 µM | 2 | – | 2 | 2,5 µM | – | 5,0 µM | 16 | – | – | 4 | 3,2 µM | – | 2 | MBC (geometric mean) (E. cloacae ATCC 13047 [4]; ATCC 13047, 18 h): 2,5 µM; MIC [17]: 2 µM; MIC (geometric mean) [17]: 2,5 µM
